Holding throughout (experiment): microbe, parasite or virus in culture
In assay [1] the test system is T1, M. bovis BCG.
T1 construct: BCG
Also noted: species or system M. tuberculosis H37Rv or N0145. The note with it: Mycobacterium tuberculosis variant bovis BCG, 15 h, read-out: BCG / −Q203.

Assay [2] relates to T2, M. tuberculosis H37Rv.
T2 construct: H37Rv
Also noted: species or system M. bovis BCG, M. tuberculosis H37Rv or N0145. As to conditions: Mycobacterium tuberculosis, 15 h, read-out: Replicating ATP IC50 (µM) H37Rv / −Q203.

The subject of assay [3] is T3, M. tuberculosis N0145.
T3 construct: N0145 (clinical isolate)
On the set-up: species or system M. bovis BCG, M. tuberculosis H37Rv or N0145.

Assay [4] relates to T1, M. bovis BCG. On the set-up: species or system M. tuberculosis H37Rv or N0145. The note with it: Mycobacterium tuberculosis variant bovis BCG, 15 h, read-out: BCG / −Q203. This is another data set of the same source.
Assay [5] deals with T2, M. tuberculosis H37Rv. Also noted: ATP depletion in replicating mycobacteria without Q203, BacTiter-Glo luminescence. The note with it: Mycobacterium tuberculosis, 15 h, read-out: Replicating ATP IC50 (µM) H37Rv / −Q203.
The subject of assay [6] is T3, M. tuberculosis N0145. Also noted: species or system M. bovis BCG, M. tuberculosis H37Rv or N0145. As to conditions: Mycobacterium tuberculosis, N0145, 15 h; read-out: N0145 / –Q203.
[7] abbreviates: Mycobacterium tuberculosis, N0145, 15 h; read-out: N0145 / –Q203.

Our source for the IC50 values is publication PMC9873234, “Syntheses and Structure–Activity Relationships of N-Phenethyl-Quinazolin-4-yl-Amines as Potent Inhibitors of Cytochrome bd Oxidase in Mycobacterium tuberculosis” (Applied sciences (Basel, Switzerland), 2021).

Like-named read-outs stand apart in the source and are kept apart here.

As to `FC(F)(F)c1ccc(CCNc2ncnc3ccccc23)cc1` [6a, Quinazolin-4-yl{2-[4-(trifluoromethyl)phenyl]ethyl}amine], the IC50 in the assay with M. bovis BCG [1], with M. tuberculosis H37Rv [2] and in the assay with M. tuberculosis N0145 [3] (setting [7]) was over 25 µM in each case.

`FC(F)(F)Oc1ccc(CCNc2ncnc3ccccc23)cc1` [7a, Quinazolin-4-yl{2-[4-(trifluoromethoxy)phenyl]ethyl}amine]: the IC50 with M. bovis BCG [1], with M. tuberculosis H37Rv [2] and in the assay with M. tuberculosis N0145 [3] (setting [7]) was over 25 µM in each case.

Regarding `Clc1ccc(CCNc2ncnc3ccccc23)cc1` [8a], the IC50 with M. bovis BCG [1], with M. tuberculosis H37Rv [2] and with M. tuberculosis N0145 [3] (setting [7]) was over 25 µM in each case.

Consider `FS(F)(F)(F)(F)c1ccc(CCNc2ncnc3ccccc23)cc1` [9a], for which the IC50 in the assay on M. bovis BCG [1], with M. tuberculosis H37Rv [2] and in the assay on M. tuberculosis N0145 [3] (setting [7]) was over 25 µM throughout.

For `Cc1ccc(CCNc2ncnc3ccccc23)cc1` [10a], the IC50 in the assay with M. bovis BCG [1], in the assay with M. tuberculosis H37Rv [2] and with M. tuberculosis N0145 [3] (setting [7]) was over 25 µM each time.

Consider `COc1ccc(CCNc2ncnc3ccccc23)cc1` [11a], for which the IC50 with M. bovis BCG [1], in the assay with M. tuberculosis H37Rv [2] and in the assay with M. tuberculosis N0145 [3] (setting [7]) was over 25 µM throughout.

For the molecule `CC(C)(C)c1ccc(CCNc2ncnc3ccccc23)cc1` [12a, {2-[4-(tert-Butyl)phenyl]ethyl}quinazolin-4-ylamine], the IC50 with M. bovis BCG [1], with M. tuberculosis H37Rv [2] and in the assay on M. tuberculosis N0145 [3] (setting [7]) was over 25 µM each time.

For `FC(F)(F)Oc1cccc(CCNc2ncnc3ccccc23)c1` [13a], the IC50 in the assay on M. bovis BCG [1], in the assay with M. tuberculosis H37Rv [2] and with M. tuberculosis N0145 [3] (setting [7]) was over 25 µM in each case.

Consider `CCOc1cccc(CCNc2ncnc3ccccc23)c1` [14a], for which the IC50 in the assay on M. bovis BCG [1], in the assay with M. tuberculosis H37Rv [2] and in the assay with M. tuberculosis N0145 [3] (setting [7]) was over 25 µM throughout.

As for `FC(F)(F)c1ccccc1CCNc1ncnc2ccccc12` [15a, Quinazolin-4-yl{2-[2-(trifluromethyl)phenyl]ethyl}amine], the IC50 in the assay with M. bovis BCG [1], in the assay on M. tuberculosis H37Rv [2] and with M. tuberculosis N0145 [3] (setting [7]) was over 25 µM each time.

For the molecule `Fc1ccc2ncnc(NCCc3ccc(OC(F)(F)F)cc3)c2c1` [16a], the IC50 with M. bovis BCG [4], in the assay with M. tuberculosis H37Rv [5] and with M. tuberculosis N0145 [6] was over 25 µM each time.

Turning to `Cc1ccc2ncnc(NCCc3ccc(OC(F)(F)F)cc3)c2c1` [17a], the IC50 in the assay on M. bovis BCG [4], with M. tuberculosis H37Rv [5] and in the assay on M. tuberculosis N0145 [6] was over 25 µM throughout.

`COc1ccc2ncnc(NCCc3ccc(OC(F)(F)F)cc3)c2c1` [18a]: the IC50 with M. bovis BCG [4], in the assay on M. tuberculosis H37Rv [5] and with M. tuberculosis N0145 [6] was over 25 µM each time.

As to `Fc1ccc2c(NCCc3ccc(OC(F)(F)F)cc3)ncnc2c1` [19a, (7-Fluoroquinazolin-4-yl){2-[4-(trifluormethoxy)phenyl]ethyl}amine], the IC50 with M. bovis BCG [4], with M. tuberculosis H37Rv [5] and in the assay on M. tuberculosis N0145 [6] was over 25 µM each time.

Consider `FC(F)(F)Oc1ccc(CCNc2ncnc3cc(Cl)ccc23)cc1` [20a], for which the IC50 in the assay with M. bovis BCG [4], in the assay on M. tuberculosis H37Rv [5] and in the assay with M. tuberculosis N0145 [6] was over 25 µM each time.

For the molecule `FC(F)(F)Oc1ccc(CCNc2ncnc3cc(Br)ccc23)cc1` [21a], the IC50 in the assay with M. bovis BCG [4], in the assay with M. tuberculosis H37Rv [5] and with M. tuberculosis N0145 [6] was over 25 µM in each case.

`FC(F)(F)Oc1ccc(CCNc2ncnc3cc(C(F)(F)F)ccc23)cc1` [22a]: the IC50 with M. bovis BCG [4], in the assay on M. tuberculosis H37Rv [5] and with M. tuberculosis N0145 [6] was over 25 µM each time.

As to `COc1ccc2c(NCCc3ccc(OC(F)(F)F)cc3)ncnc2c1` [23a], the IC50 with M. bovis BCG [4], in the assay with M. tuberculosis H37Rv [5] and with M. tuberculosis N0145 [6] was over 25 µM throughout.

In the case of `Cc1nc(NCCc2ccc(OC(F)(F)F)cc2)c2ccccc2n1` [24a], the values for the IC50 in the assay on M. bovis BCG [4], in the assay on M. tuberculosis H37Rv [5] and in the assay on M. tuberculosis N0145 [6] were 12.2 ± 0.737 µM, 7.5 ± 1.02 µM and 8.2 ± 0.654 µM, respectively.

On to `FC(F)(F)Oc1ccc(CCNc2nc(C3CC3)nc3ccccc23)cc1` [25a], for which the IC50 turned out to be 8.5 ± 1.53 µM in the assay on M. bovis BCG [4], 7.6 ± 1.03 µM in the assay on M. tuberculosis H37Rv [5] and 7.3 ± 1.05 µM in the assay with M. tuberculosis N0145 [6].

Take `Cc1nc(NCCc2ccc(OC(F)(F)F)cc2)c2ccc(F)cc2n1` [26a]: the figures for the IC50 in the assay with M. bovis BCG [4], in the assay on M. tuberculosis H37Rv [5] and in the assay with M. tuberculosis N0145 [6] were over 25 µM, 23.6 ± 7.81 µM and over 25 µM, respectively.

With `COc1nc2ccc(Br)cc2cc1[C@@H](c1ccccc1)[C@@](O)(CCN(C)C)c1cccc2ccccc12` [BDQ], the IC50 in the assay with M. bovis BCG [1] was found to be 0.17 ± 0.019 µM; in the assay with M. tuberculosis H37Rv [2], 0.06 ± 0.019 µM; in the assay on M. tuberculosis N0145 [3] (setting [7]), 0.05 ± 0.003 µM.

Turning to `CC(C)=CCC/C(C)=C/CC/C(C)=C/Cc1c(C)[nH]c2ccccc2c1=O` [aurachin D], the IC50 with M. bovis BCG [1] is over 25 µM; in the assay on M. tuberculosis H37Rv [2] it was 5.5 ± 1.11 µM; in the assay on M. tuberculosis N0145 [3] (setting [7]), over 25 µM.

For the molecule `FC(F)(F)c1ccc(Oc2ccc(Nc3ncnc4ccccc34)cc2)cc1` [compound 2], the IC50 with M. bovis BCG [1], in the assay on M. tuberculosis H37Rv [2] and in the assay on M. tuberculosis N0145 [3] (setting [7]) was over 25 µM in each case.

For `c1ccc(CCNc2ncnc3ccccc23)cc1` [compound 3], the IC50 was over 25 µM in the assay on M. bovis BCG [1]; over 25 µM in the assay on M. tuberculosis H37Rv [2]; over 25 µM in the assay with M. tuberculosis N0145 [3] (Mycobacterium tuberculosis, N0145, 15 h, read-out: N0145 / –Q203).
